Reference: patent US10689367B2, “Triazole pyridyl compounds as agonists of the APJ receptor” (AMGEN INC., priority 2016, dated 2020)

Target: human APJ receptor (Homo sapiens (Human), UniProt P35414)
Test: [35S]GTPγS binding assay on membranes from CHO cells stably expressing human APJ receptor
Format: biochemical
Details: membranes of CHO cells stably expressing human APJ receptor, read-out: Activity hAPJ SPA EC50 IP
Summary of the method: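 [35S]GTPγS binding measured on membranes from CHO cells stably expressing FLAG-tagged human APJ, with GDP, MgCl2 and NaCl levels optimized beforehand. Incubation 90 min at RT, imager read-out; EC50 from non-linear regression, averaged over several independent experiments.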

Sequence of human APJ receptor (P35414 whole entry): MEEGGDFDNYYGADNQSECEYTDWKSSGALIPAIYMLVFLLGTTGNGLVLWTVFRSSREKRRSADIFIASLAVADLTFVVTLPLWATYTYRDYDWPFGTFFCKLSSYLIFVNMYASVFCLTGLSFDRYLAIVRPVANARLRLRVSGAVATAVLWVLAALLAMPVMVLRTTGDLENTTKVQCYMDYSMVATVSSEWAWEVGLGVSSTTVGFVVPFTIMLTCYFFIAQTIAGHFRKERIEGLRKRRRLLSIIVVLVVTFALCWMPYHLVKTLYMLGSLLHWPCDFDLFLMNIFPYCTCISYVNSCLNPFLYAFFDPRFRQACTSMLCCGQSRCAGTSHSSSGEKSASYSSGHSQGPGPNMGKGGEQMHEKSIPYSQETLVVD

SMILES | EC50
COc1cccc(-c2nnc(NS(=O)(=O)[C@@H](C)[C@H](OC)c3ncc(Cl)cn3)n2[C@H](C)c2cncc(F)c2)n1 (single isomer, unassigned) [Example 349.0, (1R,2S)-1-(5-chloropyrimidin-2-yl)-N-(4-((R)-1-(5-fluoropyridin-3-yl)ethyl)-5-(6-methoxypyridin-2-yl)-4H-1,2,4-triazol-3-yl)-1-methoxypropane-2-sulfonamide or (1R,2S)-1-(5-chloropyrimidin-2-yl)-N-(4-((S)-1-(5-fluoropyridin-3-yl)ethyl)-5-(6-methoxypyridin-2-yl)-4H-1,2,4-triazol-3-yl)-1-methoxypropane-2-sulfonamide] | 0.43 nM
COc1cccc(-c2nnc(NS(=O)(=O)[C@@H](C)[C@@H](OC(C)C)c3ncc(Cl)cn3)n2C(C)C)n1 [Example 177.0, (1S,2S)-1-(5-chloro-2-pyrimidinyl)-N-(5-(6-methoxy-2-pyridinyl)-4-(2-propanyl)-4H-1,2,4-triazol-3-yl)-1-(2-propanyloxy)-2-propanesulfonamide] | 8.9 nM
CC[C@H](c1c(C)noc1C)n1c(NS(=O)(=O)[C@@H](C)[C@@H](OC(C)C)c2ncc(C)cn2)nnc1-c1cccc(OC)n1 (mixture of isomers) [Example 209.0, (1S,2S)-N-(4-((1R)-1-(3,5-dimethyl-1,2-oxazol-4-yl)propyl)-5-(6-methoxy-2-pyridinyl)-4H-1,2,4-triazol-3-yl)-1-(5-methyl-2-pyrimidinyl)-1-(2-propanyloxy)-2-propanesulfonamide and (1S,2S)-N-(4-((1S)-1-(3,5-dimethyl-1,2-oxazol-4-yl)propyl)-5-(6-methoxy-2-pyridinyl)-4H-1,2,4-triazol-3-yl)-1-(5-methyl-2-pyrimidinyl)-1-(2-propanyloxy)-2-propanesulfonamide] | 14 nM
CC[C@H](c1cc(F)cc(F)c1)n1c(NS(=O)(=O)[C@@H](C)[C@H](OC)c2ncc(Cl)cn2)nnc1-c1cccc(OC)n1 (single isomer, unassigned) [Example 342.0, (1R,2S)-1-(5-chloropyrimidin-2-yl)-N-(4-((R)-1-(3,5-difluorophenyl)propyl)-5-(6-methoxypyridin-2-yl)-4H-1,2,4-triazol-3-yl)-1-methoxypropane-2-sulfonamide or (1R,2S)-1-(5-chloropyrimidin-2-yl)-N-(4-((S)-1-(3,5-difluorophenyl)propyl)-5-(6-methoxypyridin-2-yl)-4H-1,2,4-triazol-3-yl)-1-methoxypropane-2-sulfonamide] | 0.05 nM
COc1cccc(-c2nnc(NS(=O)(=O)[C@@H](C)[C@H](C)c3ncc(Cl)cn3)n2[C@@H](C)c2ccno2)n1 (single isomer, unassigned) [Example 214.0, (2S,3R)-3-(5-chloro-2-pyrimidinyl)-N-(5-(6-methoxy-2-pyridinyl)-4-((1S)-1-(1,2-oxazol-5-yl)ethyl)-4H-1,2,4-triazol-3-yl)-2-butanesulfonamide or (2S,3R)-3-(5-chloro-2-pyrimidinyl)-N-(5-(6-methoxy-2-pyridinyl)-4-((1R)-1-(1,2-oxazol-5-yl)ethyl)-4H-1,2,4-triazol-3-yl)-2-butanesulfonamide] | 2.9 nM
COc1cccc(-c2nnc(NS(=O)(=O)[C@@H](C)[C@H](C)c3ncc(Cl)cn3)n2[C@@H](C)c2ncn(C)n2)n1 (single isomer, unassigned) [Example 237.0, (2S,3R)-3-(5-chloro-2-pyrimidinyl)-N-(5-(6-methoxy-2-pyridinyl)-4-((1S)-1-(1-methyl-1H-1,2,4-triazol-3-yl)ethyl)-4H-1,2,4-triazol-3-yl)-2-butanesulfonamide or (2S,3R)-3-(5-chloro-2-pyrimidinyl)-N-(5-(6-methoxy-2-pyridinyl)-4-((1R)-1-(1-methyl-1H-1,2,4-triazol-3-yl)ethyl)-4H-1,2,4-triazol-3-yl)-2-butanesulfonamide] | 130 nM
COc1cccc(-c2nnc(NS(=O)(=O)[C@@H](C)[C@H](C)c3ncc(Cl)cn3)n2Cc2ccon2)n1 [Example 260.0, (2S,3R)-3-(5-chloropyrimidin-2-yl)-N-(4-(isoxazol-3-ylmethyl)-5-(6-methoxypyridin-2-yl)-4H-1,2,4-triazol-3-yl)butane-2-sulfonamide] | 5.1 nM
COc1cccc(-c2nnc(NS(=O)(=O)[C@@H](C)[C@H](C)c3ncc(Cl)cn3)n2[C@@H](C)c2ncn(C)n2)n1 (single isomer, unassigned) [Example 238.0, (2S,3R)-3-(5-chloro-2-pyrimidinyl)-N-(5-(6-methoxy-2-pyridinyl)-4-((1R)-1-(1-methyl-1H-1,2,4-triazol-3-yl)ethyl)-4H-1,2,4-triazol-3-yl)-2-butanesulfonamide or (2S,3R)-3-(5-chloro-2-pyrimidinyl)-N-(5-(6-methoxy-2-pyridinyl)-4-((1S)-1-(1-methyl-1H-1,2,4-triazol-3-yl)ethyl)-4H-1,2,4-triazol-3-yl)-2-butanesulfonamide] | 6.2 nM
CC[C@H]([C@@H]1CCCCO1)n1c(NS(=O)(=O)[C@@H](C)[C@H](OC)c2ncc(C)cn2)nnc1-c1cncc(C)c1 (single isomer, unassigned) [Example 335.0] | 14 nM
COCC1(n2c(NS(=O)(=O)[C@@H](C)[C@H](OC)c3ncc(C)cn3)nnc2-c2ccccn2)CC1 [Example 67.0] | 24 nM
COc1cccc(-c2nnc(NS(=O)(=O)[C@@H](C)[C@H](C)c3ncc(Cl)cn3)n2[C@@H](C)c2c(C)noc2C)n1 (racemic) [Example 314.0, (2S,3R)-3-(5-chloropyrimidin-2-yl)-N-(4-((R)-1-(3,5-dimethylisoxazol-4-yl)ethyl)-5-(6-methoxypyridin-2-yl)-4H-1,2,4-triazol-3-yl)butane-2-sulfonamide or (2S,3R)-3-(5-chloropyrimidin-2-yl)-N-(4-((S)-1-(3,5-dimethylisoxazol-4-yl)ethyl)-5-(6-methoxypyridin-2-yl)-4H-1,2,4-triazol-3-yl)butane-2-sulfonamide] | 33 nM
COc1cccc(-c2nnc(NS(=O)(=O)[C@@H](C)[C@H](C)c3ncc(Cl)cn3)n2[C@@H](C)c2ccon2)n1 (racemic) [Example 268.0, (2S,3R)-3-(5-chloropyrimidin-2-yl)-N-(4-((R)-1-(isoxazol-3-yl)ethyl)-5-(6-methoxypyridin-2-yl)-4H-1,2,4-triazol-3-yl)butane-2-sulfonamide or (2S,3R)-3-(5-chloropyrimidin-2-yl)-N-(4-((S)-1-(isoxazol-3-yl)ethyl)-5-(6-methoxypyridin-2-yl)-4H-1,2,4-triazol-3-yl)butane-2-sulfonamide] | 2.7 nM
COc1cccc(-c2nnc(NS(=O)(=O)[C@@H](C)[C@H](C)c3ncc(Cl)cn3)n2[C@@H](C)c2nc(C)no2)n1 (single isomer, unassigned) [Example 246.0, (2S,3R)-3-(5-chloro-2-pyrimidinyl)-N-(5-(6-methoxy-2-pyridinyl)-4-((1R)-1-(5-methyl-1,2,4-oxadiazol-3-yl)ethyl)-4H-1,2,4-triazol-3-yl)-2-butanesulfonamide or (2S,3R)-3-(5-chloro-2-pyrimidinyl)-N-(5-(6-methoxy-2-pyridinyl)-4-((1S)-1-(5-methyl-1,2,4-oxadiazol-3-yl)ethyl)-4H-1,2,4-triazol-3-yl)-2-butanesulfonamide] | 3.4 nM
COc1cccc(-c2nnc(NS(=O)(=O)[C@@H](C)[C@@H](OC(C)C)c3ncc(C)cn3)n2[C@@H](C)c2c(C)noc2C)n1 (racemic) [Example 315.0] | 57 nM
